Test results as given in US5204351A, “6-fluoro-3,5-dihydroxy carboxylic acids and derivatives thereof” (Hoechst Aktiengesellschaft, priority 1988, dated 1993).

Tests used:
[1] = system: cholesterol biosynthesis (in HEP-G2 cells); assay: Suppression or inhibition of HMG-CoA reductase in cell cultures of HEP-G2 cells: inhibition of cholesterol biosynthesis from 14C-acetate; format: cell-based; details: Homo sapiens, HepG2, monolayers, e.g. 1 hour preincubation, 3 hours with sodium 14C-acetate, Table 2
Experimental: 2. Suppression or inhibition of HMG-CoA reductase in cell cultures of HEP-G2 cells
Monolayers of HEP-G2 cells in the lipoprotein-free nutrient medium were preincubated with appropriate concentrations of the test substances for a defined time (for example 1 hour) and, after addition of the labeled precursor, for example sodium ^14 C-acetate, the incubation was continued (for example for 3 hours). An internal standard (^3 H-cholesterol) was added and then a portion of the cells underwent alkaline hydrolysis. The lipids from the hydrolyzed cells were extracted with chloroform/methanol. After addition of carrier cholesterol to this lipid mixture it was subjected to preparative thin-layer chromatography, the cholesterol band was visualized with iodine vapor and then isolated, and the amount of ^14 C-cholesterol formed from the ^14 C-precursor was determined by scintigraphy. Cell protein was determined in an aliquot of the cells so that it is possible to calculate the amount of ^14 C-cholesterol formed per unit time and per mg of cell protein. The inhibitory effect of the particular test product on the cholesterol biosynthesis by HEP-G2 cell cultures was obtained by comparing this figure with the amount of ^14 C-cholesterol formed per mg of cell protein and unit time in a culture treated in the same way but free of test substance.
Examination of substances for inhibition of cholesterol biosynthesis
in confluent cell cultures (monolayers) of HEP-G2 cells
The method described above was used to measure, for example, the following figures for the inhibition of cholesterol biosynthesis (in HEP-G2 cells) by the compounds according to the invention (the IC50 /mol/liter is that concentration of the compound which brings about 50% inhibition of cholesterol biosynthesis) (Tab. 2).

[2] = target: T1, HMG-CoA reductase (Rattus norvegicus, UniProt P51639); assay: HMG CoA reductase activity in enzyme preparations (solubilized enzyme preparations from liver microsomes of cholestyramine-induced rats, 14C-HMG-CoA substrate); format: biochemical; details: solubilized rat liver microsomal enzyme; mean of 3 parallel samples; Table 1; read-out: IC50 for inhibition of HMG-CoA reductase
T1 construct: solubilized enzyme preparations from liver microsomes from rats; from tissue; host or cells: liver microsomes of cholestyramine-induced rats
T1 sequence (P51639 1-887): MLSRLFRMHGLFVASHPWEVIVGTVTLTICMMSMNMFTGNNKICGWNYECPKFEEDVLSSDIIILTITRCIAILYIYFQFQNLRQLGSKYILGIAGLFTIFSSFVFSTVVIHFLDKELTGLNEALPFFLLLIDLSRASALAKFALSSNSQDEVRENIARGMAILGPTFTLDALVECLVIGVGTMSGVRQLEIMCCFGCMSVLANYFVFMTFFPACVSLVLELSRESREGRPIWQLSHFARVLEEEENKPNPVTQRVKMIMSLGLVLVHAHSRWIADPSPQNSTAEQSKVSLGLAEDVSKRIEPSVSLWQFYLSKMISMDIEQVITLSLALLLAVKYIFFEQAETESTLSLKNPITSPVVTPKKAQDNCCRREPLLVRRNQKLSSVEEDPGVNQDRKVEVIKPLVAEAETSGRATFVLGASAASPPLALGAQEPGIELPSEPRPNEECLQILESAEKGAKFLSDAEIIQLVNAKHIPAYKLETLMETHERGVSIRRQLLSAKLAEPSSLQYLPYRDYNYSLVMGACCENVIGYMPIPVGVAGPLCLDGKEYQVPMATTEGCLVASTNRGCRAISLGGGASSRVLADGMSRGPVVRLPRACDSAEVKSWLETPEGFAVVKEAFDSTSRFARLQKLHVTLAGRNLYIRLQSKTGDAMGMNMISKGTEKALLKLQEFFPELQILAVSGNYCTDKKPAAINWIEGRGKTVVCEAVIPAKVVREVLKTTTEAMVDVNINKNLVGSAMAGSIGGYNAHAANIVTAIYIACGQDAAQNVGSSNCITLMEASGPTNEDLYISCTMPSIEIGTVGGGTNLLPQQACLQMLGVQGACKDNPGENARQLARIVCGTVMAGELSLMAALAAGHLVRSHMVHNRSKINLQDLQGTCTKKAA
Experimental: 1. HMG CoA reductase activity in enzyme preparations
The HMG-CoA reductase activity was measured on solubilized enzyme preparations from liver microsomes from rats which, after a changeover in the day/night rhythm, had been induced with cholestyramine (®Cuemid).
The substrate used was (S,R) ^14 C-HMG-CoA, and the concentration of NADPH was maintained constant during the incubation by a regenerating system. ^14 C-Mevalonate was separated from the substrate and other products (e.g. ^14 C-HMG) by column elution, with the elution profile of each individual sample being determined.
Permanent inclusion of ^3 H-mevalonate was dispensed with because the determination was for relative data on the inhibitory effect. In each test series the enzyme-free control, the enzyme-containing normal mixture (=100%) and those with added product, final concentration 10^-5 to 10^-9 M, were treated together. Each individual value was formed as the mean of 3 parallel samples. The significance of the differences between means for product-free and product-containing samples was assessed using the t test.
The method described above was used to measure, for example, the following figures for the inhibition of HMG-CoA reductase by the compounds according to the invention [IC50 /mol/liter means the molar concentration of the compound per liter necessary for 50% inhibition]: […]

[3] = system: cholesterol; details: rats; cited from earlier work

Row | SMILES | IC50 [1] [nM] | IC50 [2] [nM] | cholesterol-lowering action [3]
1 | CC(C)c1nc(-c2ccccc2)cc(-c2ccc(F)cc2)c1/C=C(\F)[C@@H](O)C[C@@H](O)CC(=O)O [11 b] | 20 |  | 
2 | CC(C)c1nc(-c2ccccc2)cc(-c2ccc(F)cc2)c1/C=C(\F)[C@@H]1C[C@@H](O)CC(=O)O1 [10 b] | 4.6 | 9 | 
3 | CC(C)c1nc(-c2ccc(F)cc2)nc(-c2ccc(F)cc2)c1/C=C(\F)[C@@H]1C[C@@H](O)CC(=O)O1 [10 a] | 19 | 2.9 | 
4 | CC(O)(CC(=O)O)CC(=O)O [3-Hydroxy-3-methylglutaric acid] |  |  | significant cholesterol-lowering action
5 | CC(C)c1nc(-c2ccc(F)cc2)nc(-c2ccc(F)cc2)c1C=C(F)C(O)CC(O)CC(=O)O (stereo not drawn) [11 a] | 18 |  | 
6 | CC(C)c1nc(-c2ccc(F)cc2)c(/C=C(\F)[C@@H]2C[C@@H](O)CC(=O)O2)c(C(C)C)n1 [10 g] | 2.5 | 1.8 | 
